Assay results from US20240398805A1, “QUINAZOLINE DERIVED COMPOUNDS AS EGFR INHIBITORS AND THEIR USES THEREOF” (ACCUTAR BIOTECHNOLOGY INC., priority 2021, published 2024).

Assays:
Assay type in all cases: cell-based
HCC827 cells = test: Cell growth inhibition (CellTiter-Glo, 3 days) in HCC827; details: Homo sapiens, 72 h, 3 days after administration
How it was run: (§1)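 HCC827 cells were plated at 5000 cells/well in RPMI with 10% FBS, and A431 cells at the same density in DMEM with 10% FBS. After overnight attachment, compounds were added at various concentrations. Luminescence was recorded after plates were equilibrated to room temperature and incubated 10 min with reagent.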

[1] = system: HCC827-SVD cells (human EGFR exon 20 insertion mutant D770_N771 insSVD); test: Cell growth inhibition (CellTiter-Glo, 3 days) in HCC827-SVD; details: 72 h, 3 days after administration
How it was run: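 HCC827 cells carrying lentiviral codon-optimized EGFR D770_N771 insSVD, with endogenous EGFR knocked out by CRISPR (single clone), seeded at 5000 cells/well in RPMI with 10% FBS. Viability read by CellTiter-Glo luminescence.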

[2] = system: HCC827-ASV cells (human EGFR exon 20 insertion mutant A769_D770insASV); test: Cell growth inhibition (CellTiter-Glo, 3 days) in HCC827-ASV; details: 72 h, 3 days after administration
How it was run: (§2)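 Growth inhibition used a CellTiter-Glo luminescence read-out after 3 days of compound exposure at various concentrations. Cells were plated the day before at 5000/well in RPMI plus 10% FBS. The lines are HCC827 transduced by lentivirus with codon-optimized EGFR ASV or ERBB2 YVMA exon 20 insertions.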

[3] = system: HCC827-YVMA cells (human ERBB2 exon20 insertion mutant A775_G776ins YVMA); test: Cell growth inhibition (CellTiter-Glo, 3 days) in HCC827-YVMA; details: 72 h, 3 days after administration
How it was run: as §2

A431 cells = test: Cell growth inhibition (CellTiter-Glo, 3 days) in A431; details: Homo sapiens, A-431, 72 h, 3 days after administration
How it was run: as §1

| SMILES | GI50 (HCC827 cells) [nM] | GI50 [1] [nM] | GI50 [2] [nM] | GI50 [3] [nM] | GI50 (A431 cells) [nM] |
| --- | --- | --- | --- | --- | --- |
| C=CC(=O)N1CCC(Nc2cc3c(Nc4ccc(Oc5ccnc(N6CC[C@@H](CO)C6)c5)cc4F)ncnc3cc2OC)CC1 [Example 251, (R)-1-(4-((4-((2-fluoro-4-((2-(3-(hydroxymethyl)pyrrolidin-1-yl)pyridin-4-yl)oxy)phenyl)amino)-7-methoxyquinazolin-6-yl)amino)piperidin-1-yl)prop-2-en-1-one] | 100 to 300 | < 30 | 30 to 60 | 30 to 60 | 300 to 600 |
| C=CC(=O)N1CCC(Nc2cc3c(Nc4ccc(Oc5ccnc(N6CCC[C@@H]6C)c5)cc4F)ncnc3cc2OC)CC1 [Example 252, (S)-1-(4-((4-((2-fluoro-4-((2-(2-methylpyrrolidin-1-yl)pyridin-4-yl)oxy)phenyl)amino)-7-methoxyquinazolin-6-yl)amino)piperidin-1-yl)prop-2-en-1-one] | 100 to 300 | 30 to 60 | 30 to 60 | 30 to 60 | 600 to 1000 |
| C=CC(=O)N1CCC(Nc2cc3c(Nc4ccc(Oc5ccnc(N6C[C@@H](F)[C@@H](F)C6)c5)cc4F)ncnc3cc2OC)CC1 [Example 253, 1-(4-((4-((4-((2-((3S,4R)-3,4-difluoropyrrolidin-1-yl)pyridin-4-yl)oxy)-2-fluorophenyl)amino)-7-methoxyquinazolin-6-yl)amino)piperidin-1-yl)prop-2-en-1-one] | 100 to 300 | 30 to 60 | 30 to 60 | 30 to 60 | 300 to 600 |
| C=CC(=O)N1CCC(Nc2cc3c(Nc4ccc(Oc5ccnc(N6C[C@@H]7OCCO[C@@H]7C6)c5)cc4F)ncnc3cc2OC)CC1 [Example 254, 1-(4-((4-((2-fluoro-4-((2-((4aR,7aS)-hexahydro-6H-[1,4]dioxino[2,3-c]pyrrol-6-yl)pyridin-4-yl)oxy)phenyl)amino)-7-methoxyquinazolin-6-yl)amino)piperidin-1-yl)prop-2-en-1-one] | 60 to 100 | < 30 | < 30 | < 30 | ≥ 1000 |
| C=CC(=O)N1CCC(Nc2cc3c(Nc4ccc(Oc5ccnc(N6C[C@@H](OC)[C@H](OC)C6)c5)cc4F)ncnc3cc2OC)CC1 [Example 255, 1-(4-((4-((4-((2-((3R,4R)-3,4-dimethoxypyrrolidin-1-yl)pyridin-4-yl)oxy)-2-fluorophenyl)amino)-7-methoxyquinazolin-6-yl)amino)piperidin-1-yl)prop-2-en-1-one] | 300 to 600 | < 30 | < 30 | < 30 | ≥ 1000 |
| C=CC(=O)N1CCC(Nc2cc3c(Nc4ccc(Oc5ccnc(N6C[C@H](OC)[C@@H](OC)C6)c5)cc4F)ncnc3cc2OC)CC1 [Example 256, 1-(4-((4-((4-((2-((3S,4S)-3,4-dimethoxypyrrolidin-1-yl)pyridin-4-yl)oxy)-2-fluorophenyl)amino)-7-methoxyquinazolin-6-yl)amino)piperidin-1-yl)prop-2-en-1-one] | 60 to 100 | < 30 | < 30 | < 30 | 100 to 300 |
| C=CC(=O)N1CCC(Nc2cc3c(Nc4ccc(Oc5ccnc(N6C[C@@H]7OCCO[C@@H]7C6)n5)cc4F)ncnc3cc2OC)CC1 [Example 257, 1-(4-((4-((2-fluoro-4-((2-((4aR,7aS)-hexahydro-6H-[1,4]dioxino[2,3-c]pyrrol-6-yl)pyrimidin-4-yl)oxy)phenyl)amino)-7-methoxyquinazolin-6-yl)amino)piperidin-1-yl)prop-2-en-1-one] | 60 to 100 | < 30 | < 30 | < 30 | 600 to 1000 |
| C=CC(=O)N1CCC(Nc2cc3c(Nc4ccc(Oc5ccnc(N6CC[C@@H](C#N)C6)c5)cc4F)ncnc3cc2OC)CC1 [Example 258, (R)-1-(4-(4-((6-((1-acryloylpiperidin-4-yl)amino)-7-methoxyquinazolin-4-yl)amino)-3-fluorophenoxy)pyridin-2-yl)pyrrolidine-3-carbonitrile] | 60 to 100 | < 30 | < 30 | < 30 | 600 to 1000 |
| C=CC(=O)N1CCC(Nc2cc3c(Nc4ccc(Oc5ccnc(N6CC[C@H](C#N)C6)c5)cc4F)ncnc3cc2OC)CC1 [Example 259, (S)-1-(4-(4-((6-((1-acryloylpiperidin-4-yl)amino)-7-methoxyquinazolin-4-yl)amino)-3-fluorophenoxy)pyridin-2-yl)pyrrolidine-3-carbonitrile] | 60 to 100 | < 30 | < 30 | < 30 | ≥ 1000 |
| C=CC(=O)N1CCC(Nc2cc3c(Nc4ccc(Oc5ccnc(N6CC(F)(F)C(F)(F)C6)c5)cc4F)ncnc3cc2OC)CC1 [Example 261, 1-(4-((4-((2-fluoro-4-((2-(3,3,4,4-tetrafluoropyrrolidin-1-yl)pyridin-4-yl)oxy)phenyl)amino)-7-methoxyquinazolin-6-yl)amino)piperidin-1-yl)prop-2-en-1-one] | 100 to 300 | 30 to 60 | 30 to 60 | 30 to 60 | 600 to 1000 |
| C=CC(=O)N1CCC(Nc2cc3c(Nc4ccc(Oc5ccnc(N6CCC(C)(C#N)C6)c5)cc4F)ncnc3cc2OC)CC1 (stereo not shown) [Example 262, 1-(4-(4-((6-((1-acryloylpiperidin-4-yl)amino)-7-methoxyquinazolin-4-yl)amino)-3-fluorophenoxy)pyridin-2-yl)-3-methylpyrrolidine-3-carbonitrile] | 30 to 60 | < 30 | 30 to 60 | 30 to 60 | 600 to 1000 |
| C=CC(=O)N1CCC(Nc2cc3c(Nc4ccc(Oc5ccnc(N6C[C@@H](F)[C@@H](OC)C6)c5)cc4F)ncnc3cc2OC)CC1 [Example 263, 1-(4-((4-((2-fluoro-4-((2-((3R,4S)-3-fluoro-4-methoxypyrrolidin-1-yl)pyridin-4-yl)oxy)phenyl)amino)-7-methoxyquinazolin-6-yl)amino)piperidin-1-yl)prop-2-en-1-one] | 100 to 300 | < 30 | < 30 | < 30 | 600 to 1000 |
| C=CC(=O)N1CCC(Nc2cc3c(Nc4ccc(Oc5ccnc(N6C[C@H](F)[C@@H](F)C6)c5)cc4F)ncnc3cc2OC)CC1 [Example 264, 1-(4-((4-((4-((2-((3S,4S)-3,4-difluoropyrrolidin-1-yl)pyridin-4-yl)oxy)-2-fluorophenyl)amino)-7-methoxyquinazolin-6-yl)amino)piperidin-1-yl)prop-2-en-1-one] | 60 to 100 | < 30 | < 30 | < 30 | 600 to 1000 |
| C=CC(=O)N1CCC(Nc2cc3c(Nc4ccc(Oc5ccnc(N6CCC(C)(F)C6)c5)cc4F)ncnc3cc2OC)CC1 (stereo not shown) [Example 265, 1-(4-((4-((2-fluoro-4-((2-(3-fluoro-3-methylpyrrolidin-1-yl)pyridin-4-yl)oxy)phenyl)amino)-7-methoxyquinazolin-6-yl)amino)piperidin-1-yl)prop-2-en-1-one] | 30 to 60 | < 30 | < 30 | < 30 | 100 to 300 |
